Measurements published in ChEMBL document CHEMBL1153765, “Bioactive 5,6-dihydro-alpha-pyrone derivatives from Hyptis brevipes” (2009).
Active and inactive are the calls of the source. The calls are words filed in the database; no cut-off is given here.

Experiments:
MCF7 = test: Cytotoxicity against human MCF7 cells; assay type: functional; conditions: read-out: ED50 (the source's name)
Lu1 = test: Cytotoxicity against human Lu1 cells; assay type: functional, cell-based
[1] = target: T1, Nuclear factor NF-kappa-B p105 subunit (Homo sapiens) (UniProt P19838); test: Inhibition of NF kappaB p50 subunit signaling pathway in human HeLa cells by biotinylated-ELISA; assay type: cell-based
T1 sequence (whole entry): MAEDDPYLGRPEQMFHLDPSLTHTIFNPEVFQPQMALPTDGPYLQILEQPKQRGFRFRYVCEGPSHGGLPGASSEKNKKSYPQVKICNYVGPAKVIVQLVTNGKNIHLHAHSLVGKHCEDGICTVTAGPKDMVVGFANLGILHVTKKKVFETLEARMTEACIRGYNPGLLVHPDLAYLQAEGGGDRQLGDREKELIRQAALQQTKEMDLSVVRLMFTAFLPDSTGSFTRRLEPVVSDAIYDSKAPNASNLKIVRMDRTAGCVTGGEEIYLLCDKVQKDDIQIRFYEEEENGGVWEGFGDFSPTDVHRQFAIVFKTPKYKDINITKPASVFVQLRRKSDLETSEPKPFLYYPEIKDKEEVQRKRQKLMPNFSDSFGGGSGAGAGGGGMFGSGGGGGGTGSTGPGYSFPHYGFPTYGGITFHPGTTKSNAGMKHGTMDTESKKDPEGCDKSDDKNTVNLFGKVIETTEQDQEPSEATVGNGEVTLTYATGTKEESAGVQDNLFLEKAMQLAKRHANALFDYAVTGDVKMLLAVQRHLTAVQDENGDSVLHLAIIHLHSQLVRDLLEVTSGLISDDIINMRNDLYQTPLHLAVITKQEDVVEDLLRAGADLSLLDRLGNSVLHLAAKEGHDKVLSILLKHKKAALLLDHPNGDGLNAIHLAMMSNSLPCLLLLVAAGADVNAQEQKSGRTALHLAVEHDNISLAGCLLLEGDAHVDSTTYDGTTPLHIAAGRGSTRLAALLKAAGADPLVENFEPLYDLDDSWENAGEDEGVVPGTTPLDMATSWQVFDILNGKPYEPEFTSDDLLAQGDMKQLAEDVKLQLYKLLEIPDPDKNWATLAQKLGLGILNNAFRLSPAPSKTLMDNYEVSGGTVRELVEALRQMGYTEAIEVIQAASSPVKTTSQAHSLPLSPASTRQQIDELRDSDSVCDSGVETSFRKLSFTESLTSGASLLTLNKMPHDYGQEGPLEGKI

HT-29 [2] = test: Induction of apoptosis in human HT-29 cells assessed as change in mitochondrial transmembrane potential after 2 hrs by JC1 staining based fluorescence assay; assay type: functional; conditions: HT-29, 2 h, read-out: ED50 (the source's name)
HL-60 = test: Inhibition of chymotrypsin-like activity of proteasome in human HL60 cells assessed as free AMC level after 10 mins; assay type: subcellular
HT-29 [3] = test: Cytotoxicity against human HT-29 cells; assay type: functional; conditions: read-out: ED50 (the source's name)

Row | ED50 [1] [µM] | EC50 (HT-29 [2]) [µM] | ED50 (HL-60) [µM] | SMILES | EC50 (MCF7) [µM] | Activity (Lu1) | EC50 (HT-29 [3]) [µM]
1 | 15.3 | 0.075 | – | CC(OC(=O)/C=C/c1ccc(O)cc1)C(=O)[C@H]1C[C@@H]1[C@H](O)[C@H]1CC=CC(=O)O1 (stereo not given in full) | 3.6 | inactive | –
2 | > 50 | – | 17 | COc1ccc(-c2oc3cc(OC)c(O)c(O)c3c(=O)c2OC)cc1O | – | inactive | –
3 | 2 | – | – | COc1ccc([C@@]23Oc4cc(OC)cc(OC)c4[C@]2(O)[C@H](O)[C@H](C(=O)N(C)C)[C@H]3c2ccccc2)cc1 | – | – | –
4 | > 50 | – | – | CC(=O)O[C@@H]([C@H]1C[C@@H]1C(=O)C(C)OC(=O)/C=C/c1ccc(O)cc1)[C@H]1CC=CC(=O)O1 (stereo not given in full) [BREVIPOLIDE A] | > 10 | inactive | 5.8
5 | > 50 | – | – | CC(=O)O[C@@H]([C@H]1C[C@@H]1C(=O)C(C)OC(=O)/C=C\c1ccc(O)cc1)[C@H]1CC=CC(=O)O1 (stereo not given in full) [BREVIPOLIDE B] | 6.1 | inactive | 6.1
6 | > 50 | – | 38 | CC(OC(=O)/C=C/c1ccc(O)c(O)c1)C(=O)[C@H]1C[C@@H]1[C@H](O)[C@H]1CC=CC(=O)O1 (stereo not given in full) [BREVIPOLIDE C] | > 10 | inactive | –
7 | > 50 | – | 44.5 | CC(OC(=O)/C=C\c1ccc(O)c(O)c1)C(=O)[C@H]1C[C@@H]1[C@H](O)[C@H]1CC=CC(=O)O1 (stereo not given in full) [BREVIPOLIDE D] | > 10 | inactive | –
8 | > 50 | – | – | CC(=O)O[C@@H]([C@H]1C[C@@H]1C(=O)C(C)OC(=O)/C=C/c1ccc(O)c(O)c1)[C@H]1CC=CC(=O)O1 (stereo not given in full) [BREVIPOLIDE E] | > 10 | inactive | –
9 | > 50 | – | – | CC(OC(=O)/C=C\c1ccc(O)cc1)C(=O)[C@H]1C[C@@H]1[C@H](O)[C@H]1CC=CC(=O)O1 (stereo not given in full) [BREVIPOLIDE F] | 6.7 | inactive | –
